Test results: paper PMC8815882, “Screening the pandemic response box identified benzimidazole carbamates, Olorofim and ravuconazole as promising drug candidates for the treatment of eumycetoma” (PLoS Neglected Tropical Diseases, 2022)
Where “and” joins values, the source holds several entries; their conditions need not be identical. Identical values can stand only once. Like-named read-outs stand apart in the source and are kept apart here.

Tested on: M. mycetomatis genome strain MM55
Assay: CLSI M38-A2 based in vitro susceptibility screening (XTT or resazurin), growth at fixed concentration
Assay type: cell-based, Madurella mycetomatis
[1] = Madurella mycetomatis, 25 uM, replicate A, MM55, read-out: Percentage survival at 25um, 25 um A
[2] = Madurella mycetomatis, 100 uM, mean of replicates, MM55, read-out: Percentage survival at 100um, 100 uM mean
[3] = Madurella mycetomatis, 100 uM, replicate 1, MM55, read-out: Percentage survival at 100um, 100 uM A
[4] = Madurella mycetomatis, 100 uM, replicate 2, MM55, read-out: Percentage survival at 100um, 100 uM A
[5] = Madurella mycetomatis, 100 uM, replicate 3, MM55, read-out: Percentage survival at 100um, 100 uM A
[6] = Madurella mycetomatis, read-out: Percentage survival at 25um, 25 uM B
[7] = Madurella mycetomatis, read-out: Percentage survival at 25um, 25 uM C
[8] = Madurella mycetomatis, read-out: Percentage survival at 25um, 25 uM mean
[9] = Madurella mycetomatis, 25 uM, mean of replicates, MM55, read-out: Percentage survival at 25um, 25 uM mean
[10] = Madurella mycetomatis, 25 uM, replicate B, MM55, read-out: Percentage survival at 25um, 25 uM B
[11] = Madurella mycetomatis, 25 uM, replicate C, MM55, read-out: Percentage survival at 25um, 25 uM C
[12] = Madurella mycetomatis, 25 uM, mean of three replicates, read-out: Percentage survival at 25um, 25 uM mean
[13] = Madurella mycetomatis, 25 uM, replicate A, read-out: Percentage survival at 25um, 25 um A
[14] = Madurella mycetomatis, 25 uM, replicate B, read-out: Percentage survival at 25um, 25 uM B
[15] = Madurella mycetomatis, 25 uM, replicate C, read-out: Percentage survival at 25um, 25 uM C
[16] = Madurella mycetomatis, 100 uM, first replicate column, read-out: Percentage survival at 100um, 100 uM A
[17] = Madurella mycetomatis, 100 uM, mean of three replicates, read-out: Percentage survival at 100um, 100 uM mean
[18] = Madurella mycetomatis, 100 uM, second replicate column, read-out: Percentage survival at 100um, 100 uM A
[19] = Madurella mycetomatis, 100 uM, third replicate column, read-out: Percentage survival at 100um, 100 uM A
[20] = Madurella mycetomatis, 100 uM, mean of replicates, read-out: Percentage survival at 100um, 100 uM mean
[21] = Madurella mycetomatis, 100 uM, replicate 1, read-out: Percentage survival at 100um, 100 uM A
[22] = Madurella mycetomatis, 100 uM, replicate 2, read-out: Percentage survival at 100um, 100 uM A
[23] = Madurella mycetomatis, 100 uM, replicate 3, read-out: Percentage survival at 100um, 100 uM A

In the case of `Nc1nc2c(Cc3cccnc3)c[nH]c2c(=O)[nH]1` [MMV1782355], the activity at 25 µM [1] is reported as 97.7%, the activity at 100 µM [2] is reported as 88.4% and the activity at 100 µM [3] is reported as 88.7%. It also gave an activity at 100 µM [4] of 105%, an activity at 100 µM [5] of 71.4% and an activity at 25 µM [6] of 95.7%. It also gave an activity at 25 µM [7] of 78.5% and an activity at 25 µM [8] of 90.6%.
With `COc1ccc(C[C@@H](C)[C@@H](C)Cc2ccc(OC)c(OC)c2)cc1OC` [MMV1581036] the activity at 25 µM [9] was 68.5%, the activity at 25 µM [1] was 72.1% and the activity at 25 µM [10] was 71.5%. For the same compound, the activity at 25 µM [11] was 61.9%, the activity at 100 µM [2] was 52.6% and the activity at 100 µM [3] was 50.8%. For the same compound, the activity at 100 µM [4] was 58.7% and the activity at 100 µM [5] was 48.3%.
`CC(C)Oc1ccc(-n2cnc3cc(/C=C\c4ccc(C(C)(C)O)cc4)ccc32)cc1` [MMV1782350] was tested, and the activity at 25 µM [9] was 60.8%, the activity at 25 µM [1] was 60% and the activity at 25 µM [10] was 63%. For the same compound, the activity at 25 µM [11] was 59.5%, the activity at 100 µM [2] was 55.5% and the activity at 100 µM [3] was 57.8%. The activity at 100 µM [4] was 56.4% and the activity at 100 µM [5] was 52.3%.
For `Nc1ccc2oc(=O)ccc2c1I` [MMV1581378], the activity at 25 µM [12] was 80.5%, the activity at 25 µM [13] was 75.8% and the activity at 25 µM [14] was 85.5%. For the same compound, the activity at 25 µM [15] was 80.1%, the activity at 100 µM [16] was 75.4% and the activity at 100 µM [17] was 64.9%. For the same compound, the activity at 100 µM [18] was 66.2% and the activity at 100 µM [19] was 53.2%.
Compound `C[N+]1(C)CCCC(OC(=O)C(O)(c2ccccc2)c2ccccc2)C1` (centres unmarked) [MMV002676] has an activity at 25 µM (Madurella mycetomatis, 25 uM, mean of replicates, read-out: Percentage survival at 25um, 25 uM mean) of 79.3%, an activity at 25 µM [13] of 73.4% and an activity at 25 µM [14] of 85.9%. The activity at 25 µM [15] was 78.5%, the activity at 100 µM [20] was 79.9% and the activity at 100 µM [21] was 85.5%. It also gave an activity at 100 µM [22] of 72.6% and an activity at 100 µM [23] of 81.5%.
With `CC[C@H](CO)Nc1nc(NCc2ccccc2)c2ncn(C(C)C)c2n1` [MMV003820] the “Percentage survival at 100um, 100 uM A” value was 50.7482% and 60.4702%, the activity at 25 µM [6] was 62.4% and the activity at 25 µM [7] was 43.5%. The activity at 25 µM [8] was 63.8%, the activity at 25 µM (Madurella mycetomatis, read-out: Percentage survival at 25um, 25 um A) was 85.5% and the activity at 100 µM (Madurella mycetomatis, read-out: Percentage survival at 100um, 100 uM A) was 48.1%. For the same compound, the activity at 100 µM (Madurella mycetomatis, read-out: Percentage survival at 100um, 100 uM mean) was 53.1%.
`CCCCc1ccc(C(=O)O)nc1` [MMV001726] showed an activity at 25 µM [13] of 92.6%, an activity at 100 µM [16] of 91.2% and an activity at 100 µM [17] of 74.3%. It also gave an activity at 100 µM [18] of 61.7%, an activity at 100 µM [19] of 69.8% and an activity at 25 µM [6] of 104%. It also gave an activity at 25 µM [7] of 77.4% and an activity at 25 µM [8] of 91.3%.
`O=C(CSc1nnc(Br)n1-c1ccc(C2CC2)c2ccccc12)Nc1ccc(C(=O)O)cc1Cl` [MMV1782213] showed an activity at 25 µM [9] of 81%, an activity at 25 µM [1] of 93.7% and an activity at 25 µM [10] of 82%. The activity at 25 µM [11] was 67.3%, the activity at 100 µM [2] was 74.5% and the activity at 100 µM [3] was 63.5%. The activity at 100 µM [4] was 115% and the activity at 100 µM [5] was 45.2%.
With `NC1(C(=O)O)CCP(=O)(O)CC1` (centres unmarked) [MMV1593538] the activity at 25 µM [13] was 56.1%, the activity at 100 µM [20] was 65.8% and the activity at 100 µM [21] was 72.6%. For the same compound, the activity at 100 µM [22] was 66.4%, the activity at 100 µM [23] was 58.5% and the activity at 25 µM [6] was 68.9%. The activity at 25 µM [7] was 67% and the activity at 25 µM [8] was 64%.
`O=C(O)C(Cc1c[nH]c2ccccc12)N1C(=O)c2ccccc2C1=O` (centres unmarked) [MMV452821] showed an activity at 25 µM [12] of 80.9%, an activity at 25 µM [13] of 99.3% and an activity at 25 µM [14] of 91%. It also gave an activity at 25 µM [15] of 52.5%, an activity at 100 µM [17] of 96.8% and an activity at 100 µM (Madurella mycetomatis, 100 uM, replicate 1, read-out: Percentage survival at 100um, 100 uM A (first replicate column)) of 102%. For the same compound, the Percent fungal survival at 100 µM (Madurella mycetomatis, 100 uM, replicate 2, read-out: Percentage survival at 100um, 100 uM A (second replicate column)) was 95.7% and the activity at 100 µM (Madurella mycetomatis, 100 uM, replicate 3, read-out: Percentage survival at 100um, 100 uM A (third replicate column)) was 92.9%.
`COc1cc(C(C(=O)NC2CCCCC2)N(C(=O)Cc2c[nH]c3ccccc23)c2ccc(C(C)C)cc2)cc(OC)c1OC` (centres unmarked) [MMV1593544] was tested, and the activity at 25 µM [9] was 98.2%, the activity at 25 µM [1] was 107% and the activity at 25 µM [10] was 106%. The activity at 25 µM [11] was 81.3%, the activity at 100 µM [2] was 88.5% and the activity at 100 µM [3] was 98%. It also gave an activity at 100 µM [4] of 88.7% and an activity at 100 µM [5] of 78.7%.
`Cc1c(F)cccc1NC(=O)Nc1ccc(Cl)c(S(=O)(=O)[C@H]2CCCNC2)c1O` [MMV1581034] gave an activity at 25 µM [9] of 83.9%, an activity at 25 µM [1] of 82% and an activity at 25 µM [10] of 88.9%. The activity at 25 µM [11] was 80.7%, the activity at 100 µM [2] was 77.6% and the activity at 100 µM [3] was 82.8%. For the same compound, the activity at 100 µM [4] was 73.6% and the activity at 100 µM [5] was 76.3%.
